For one test, the target named is STAT3 Glu594Ala mutant (Homo sapiens, UniProt P40763, E594A). The experiment in a line: FP assay against STAT3 Glu594Ala mutant. Format: binding. The source says:
The predicted (E)-trans-configuration of the acyl hydrazone moiety in the protein-bound state was also observed in the X-ray structure of crystals of 8 grown from ethyl acetate / hexane (Supplementary Fig. S4). Substantial conformational changes of the protein are required for ligand binding (Supplementary Fig. S3), a process which can account for the observed time-dependence of inhibition by 8 (Supplementary Fig. S5). […] Substitution of the pyridyl ring for electron-rich, five-membered heteroaromatic rings is tolerated (17–19). […] This behavior is consistent with hydrogen bonding between the molecules’ carbonyl group and the backbone amide of Gln635 as proposed by the docking studies (Fig. 2b), which is expected to suffer from electron-withdrawing substituents on the phenyl ring. Further evidence for hydrogen bonding arises from the inactivity of derivative 22, in which the carbonyl group has been deleted. Substitution of the carbonyl by a sulfonyl group (compound 23) is also not tolerated, indicating specific recognition of 8 by STAT3.
This reduction tails off, consistent with the idea that inhibition of STAT3 by 8 is a slow but reversible process. […]
easily susceptible to covalent modification by nucleophiles. […] C) Activity of 8 in a fluorescence polarization assay against wild-type STAT3 or a STAT3 Glu594Ala mutant after 2 h incubation in the presence of 1 mM DTT. […]

The next test deals with STAT5 phosphorylation. In words: Western Blot, STAT5 tyrosine phosphorylation in K562 cells. Format: cell-based, human. The source says: (§1) An inhibitor of a STAT SH2 domain prevents phosphorylation of STATs at this conserved tyrosine residue, thereby inhibiting STAT-mediated signal transduction (Fig. 3a). Consistent with its activity in the FP assay, 8 inhibited interleukin (IL)-6-stimulated STAT3 Tyr705 phosphorylation in HepG2 cells in a dose-dependent manner (Fig. 3b). […] In contrast, tyrosine phosphorylation of STAT5 in K562 cells is not inhibited (Fig. 3d). The activity profile in cells thus reflects the selectivity profile seen in vitro (Fig. 2a, Table 1), supporting the notion that cellular activities are mediated by functional inhibition of the STAT SH2 domains.
(§2) HepG2 cells were plated in 6-well plates (Corning #3516) and allowed to reach approximately 60% confluence. The medium was then replaced with serum-free medium for 24 h. […]
(§3) Lysates were separated on a polyacrylamide gel under denaturing conditions, and transferred to a nitrocellulose membrane. STAT phosphorylation was assessed using rabbit monoclonal antibodies against the phosphorylated forms only of STAT1, STAT3 or STAT5 (Cell Signaling, 1:1000) with secondary antibody swine anti-rabbit HRP from Dako, 1:3000), followed by reblotting with rabbit monoclonal antibodies against total STAT1, STAT3 or STAT5 (Cell Signaling), and subsequently β-actin loading control. […]
For orientation: A western blot detects proteins with antibodies after separation by electrophoresis.

The subject of test [1] is STAT1 Tyr701 phosphorylation. The experiment in a line: Western Blot, IFN-γ-stimulated STAT1 Tyr701 phosphorylation in HepG2 cells. In kind it is cell-based, human. As to conditions: 1 h pre-treatment, 15 min 50 ng/mL IFNγ.
From the text: as §1, §2, §3

Test [2] concerns STAT3 Tyr705 phosphorylation. The experiment in a line: Western Blot, IL-6-stimulated STAT3 Tyr705 phosphorylation in HepG2 cells. In kind it is cell-based, human. To be noted: 1 h pre-treatment, 30 min 50 ng/mL IL-6.
From the text: as §1, §2, §3

Sequence of STAT3 Glu594Ala mutant (P40763 whole entry E594A): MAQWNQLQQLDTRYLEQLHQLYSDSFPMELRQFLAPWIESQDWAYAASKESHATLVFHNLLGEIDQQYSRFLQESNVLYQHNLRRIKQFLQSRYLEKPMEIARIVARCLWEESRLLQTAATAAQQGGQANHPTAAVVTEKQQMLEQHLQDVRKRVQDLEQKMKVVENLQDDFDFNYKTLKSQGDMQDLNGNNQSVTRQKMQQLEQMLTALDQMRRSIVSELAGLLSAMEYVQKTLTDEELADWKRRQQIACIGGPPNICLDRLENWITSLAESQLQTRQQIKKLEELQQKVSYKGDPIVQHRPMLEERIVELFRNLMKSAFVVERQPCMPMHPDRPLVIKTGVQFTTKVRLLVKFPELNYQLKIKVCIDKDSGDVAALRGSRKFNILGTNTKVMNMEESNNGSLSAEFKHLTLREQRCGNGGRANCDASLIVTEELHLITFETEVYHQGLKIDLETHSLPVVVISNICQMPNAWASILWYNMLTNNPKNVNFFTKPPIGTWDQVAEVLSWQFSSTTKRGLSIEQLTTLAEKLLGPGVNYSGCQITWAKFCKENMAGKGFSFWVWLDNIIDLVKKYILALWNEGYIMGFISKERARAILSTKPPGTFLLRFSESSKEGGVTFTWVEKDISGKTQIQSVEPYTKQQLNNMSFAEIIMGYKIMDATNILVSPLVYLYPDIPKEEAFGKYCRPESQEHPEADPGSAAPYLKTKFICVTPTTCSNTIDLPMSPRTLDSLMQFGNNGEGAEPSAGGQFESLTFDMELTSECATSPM

The term IC50 denotes the point on the concentration scale where inhibition reaches its midpoint. Consider `CC(C)(C)c1ccc2occ(/C=N/NC(=O)c3cccnc3)c(=O)c2c1` [Compound 8], for which the “activity against STAT3 Glu594Ala mutant compared to wild-type STAT3” value on STAT3 Glu594Ala mutant is given as “three-fold lower activity”. At STAT3 Glu594Ala mutant (2 h incubation, 1 mM DTT, read-out: app. IC50 against STAT3 Glu594Ala mutant), the half-inhibitory concentration (IC50) was 27 ± 1 µM. Besides, the “tyrosine phosphorylation of STAT5” value with STAT5 phosphorylation was “not inhibited”. The “IFN-γ-stimulated phosphorylation of STAT1 Tyr701” value in test [1] is given as “inhibited to a lesser extent”. Also, the “IL-6-stimulated STAT3 Tyr705 phosphorylation” value in test [2] was “inhibited”.

For the origin of these results see PMC5727211, “Development of Erasin: a chromone-based STAT3 inhibitor which induces apoptosis in Erlotinib-resistant lung cancer cells” (Scientific Reports, 2017).
